pIC50: −log10 of the molar value.
Key:
[1] = test system: Thp1 human monocytic cells; assay: Thp1 Monocyte ATP Production Assay; type: cell-based; conditions: for pIC50: Thp1 cells, 24 hour incubation, ATPLite, 9-point range 10 μM to 10 nM, mean of 2 independent experiments; for potency in the Thp1 monocytic ATP assay (in words): compared to the reference compounds
Protocol: In vitro potency of test compounds was determined by incubation with Thp1 human monocytic cells and subsequent determination of Adenosine TriPhosphate (ATP) levels using firefly luciferase.
ATP is present in all metabolically active cells. When cells lose integrity, their ability to synthesise ATP is rapidly lost. […] See, e.g., Kang et al., 2015; Jiang et al., 2013. Levels of ATP can be monitored using a system based on firefly (Photinus pyralis) luciferase (see, e.g., Auld et al., 2009) using commercially available kits. A system known as
ATPlite™ was using to measure effects of the test compounds on cellular viability in vitro. This one-step assay system is an adenosine triphosphate (ATP) monitoring system based on the production of light caused by the reaction of ATP from the cells with added luciferase and D-luciferin, as illustrated in the reaction scheme below:
The emitted light is proportional to the ATP concentration.
Thp1 cells were plated at 112500 cells per well in 125 μL RPMI-1640 (no glucose) with 1% FBS in 96-well plates. Test compounds were prepared as 100 mM solutions in DMSO. These stock solutions were diluted in DMSO and then diluted 1000× in culture medium (RPMI) before being added directly to the wells so as to give the desired final compound concentration. After a 24 hour incubation at 37° C./5% CO2, ATPLite™ (Perkin Elmer) was added to each well (1:10 v/v, 10 μL). The plate was then incubated at room temperature for 5 minutes and the emitted light was quantified on Viewlux with a measurement time of 0.3 seconds and binning 4×4.
The average results for each test compound were expressed as a percent (%) of the average control value reflecting cell viability. The average values across the concentrations tested were then plotted and the IC50 for was calculated by fitting the data to a 4-parameter IC50 equation using software from Graf it (Erithacus Software). Each experiment was repeated twice and the data are presented as the mean IC50 from both experiments.

[2] = Human hepatocyte stability; type: in vitro ADME; conditions: human, pooled human hepatocytes, human hepatocytes, 1 μM, 60 minute incubation; for hepatocyte CLint at 1 μM: read-out: Human Clint (uL/min/million cells); for half-life at 1 μM: read-out: Human t1/2
Protocol: (§1) Metabolic stability of test compounds was measured by determination of the rate of disappearance of the compound when incubated in the presence of rat or human hepatocytes, a primary source of the most important enzymes (cytochrome P450s) involved in drug metabolism. Study of drug stability in the presence of primary hepatocytes is accepted as a valuable model permitting rapid prediction of in vivo drug stability.
(§2) Rat or human hepatocytes were obtained from a commercial source and viability was assessed using a trypan blue solution prior to use. Test compounds (final concentration 1 μM, 0.1% DMSO, 0.9% acetonitrile) or a marker (diclofenac or diltiazem, final assay concentration 1 μM, 0.1% DMSO, 0.9% acetonitrile) were incubated with pooled hepatocytes for a 60 minute period and samples removed at up to 6 time points and analysed by LC-MS/MS for the presence/amount of test compounds.
(§3) Each compound was incubated for 0, 5, 15, 30, 45, or 60 minutes. The reactions were stopped by the addition of methanol containing an internal standard (1 μM Tolbutamide) at the appropriate time points, mixed and placed at −20° C. for ≥1 hour to quench and allow protein to precipitate. All samples were centrifuged (2500×g, 20 minutes, 4° C.). The aliquots were analysed using LC-MS/MS. Reactions were performed in duplicate at 37° C.
(§4) Data were processed, and the results plotted as In(concentration) vs. time. The elimination rate constant (slope of the regression line, k) was calculated using the following formula, where C(t) is the concentration at time t and C(0) is the starting concentration:
(§5) The half-life (t1/2) was calculated using the following formula: […]
(§6) The intrinsic clearance (CIint) was calculated using the following formula, where [cell] is the hepatocyte concentration in the assay: […]

[3] = biological target: CYP2C9 (Homo sapiens (Human), UniProt P11712); assay: Human Cytochrome P450 Inhibition Assay (Bactosomes); type: in vitro ADME; conditions: recombinant Bactosomes, 10 minutes, 37° C.
Chain of CYP2C9 (P11712 whole entry): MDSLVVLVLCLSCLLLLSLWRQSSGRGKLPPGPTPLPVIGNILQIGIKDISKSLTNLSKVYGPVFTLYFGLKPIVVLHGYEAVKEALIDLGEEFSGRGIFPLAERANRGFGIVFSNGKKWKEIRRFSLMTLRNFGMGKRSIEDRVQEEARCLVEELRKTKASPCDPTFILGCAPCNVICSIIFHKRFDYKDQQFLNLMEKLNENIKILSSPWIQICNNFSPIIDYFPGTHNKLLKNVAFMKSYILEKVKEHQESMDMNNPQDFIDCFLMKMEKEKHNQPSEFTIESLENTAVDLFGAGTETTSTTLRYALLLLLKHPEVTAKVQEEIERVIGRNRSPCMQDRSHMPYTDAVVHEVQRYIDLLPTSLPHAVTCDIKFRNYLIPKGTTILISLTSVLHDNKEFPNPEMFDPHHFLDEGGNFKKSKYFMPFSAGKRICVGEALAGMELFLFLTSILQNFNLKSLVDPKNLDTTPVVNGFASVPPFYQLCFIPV

[4] = biological target: CYP2C19 (Homo sapiens (Human), UniProt P33261); assay: as above; type: in vitro ADME; conditions: recombinant Bactosomes, 10 minutes, 37° C.
Chain of CYP2C19 (P33261 whole entry): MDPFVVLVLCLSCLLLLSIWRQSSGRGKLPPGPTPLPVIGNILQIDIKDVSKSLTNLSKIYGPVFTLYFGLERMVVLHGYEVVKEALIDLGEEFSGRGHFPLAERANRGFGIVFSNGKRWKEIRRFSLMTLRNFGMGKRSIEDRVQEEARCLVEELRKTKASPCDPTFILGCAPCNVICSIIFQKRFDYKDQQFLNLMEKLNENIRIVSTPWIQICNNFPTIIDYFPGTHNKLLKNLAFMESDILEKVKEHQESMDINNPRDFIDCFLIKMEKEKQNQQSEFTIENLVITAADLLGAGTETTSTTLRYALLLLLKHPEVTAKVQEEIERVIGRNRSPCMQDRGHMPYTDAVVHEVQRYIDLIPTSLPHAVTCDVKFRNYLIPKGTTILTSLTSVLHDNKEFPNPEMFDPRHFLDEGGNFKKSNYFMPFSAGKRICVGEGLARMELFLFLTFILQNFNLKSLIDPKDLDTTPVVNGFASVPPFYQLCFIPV

[5] = biological target: CYP2D6 (Homo sapiens (Human), UniProt P10635); assay: as above; type: in vitro ADME; conditions: recombinant Bactosomes, 10 minutes, 37° C.
Chain of CYP2D6 (P10635 whole entry): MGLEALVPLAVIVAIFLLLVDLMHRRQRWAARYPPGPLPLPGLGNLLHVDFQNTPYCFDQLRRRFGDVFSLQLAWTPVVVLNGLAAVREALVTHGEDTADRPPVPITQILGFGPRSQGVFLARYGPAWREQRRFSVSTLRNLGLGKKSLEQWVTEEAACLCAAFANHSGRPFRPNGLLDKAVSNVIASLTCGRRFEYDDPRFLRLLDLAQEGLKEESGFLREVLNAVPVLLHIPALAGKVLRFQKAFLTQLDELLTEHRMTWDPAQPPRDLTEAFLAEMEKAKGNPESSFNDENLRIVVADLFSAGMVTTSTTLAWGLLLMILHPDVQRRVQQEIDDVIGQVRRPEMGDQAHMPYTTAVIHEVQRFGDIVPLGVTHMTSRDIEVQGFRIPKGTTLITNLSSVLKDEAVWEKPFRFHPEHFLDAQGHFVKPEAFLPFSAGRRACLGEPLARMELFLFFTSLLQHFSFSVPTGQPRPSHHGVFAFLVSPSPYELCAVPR

[6] = biological target: CYP1A2 (Homo sapiens (Human), UniProt P05177); assay: as above
Chain of CYP1A2 (P05177 whole entry): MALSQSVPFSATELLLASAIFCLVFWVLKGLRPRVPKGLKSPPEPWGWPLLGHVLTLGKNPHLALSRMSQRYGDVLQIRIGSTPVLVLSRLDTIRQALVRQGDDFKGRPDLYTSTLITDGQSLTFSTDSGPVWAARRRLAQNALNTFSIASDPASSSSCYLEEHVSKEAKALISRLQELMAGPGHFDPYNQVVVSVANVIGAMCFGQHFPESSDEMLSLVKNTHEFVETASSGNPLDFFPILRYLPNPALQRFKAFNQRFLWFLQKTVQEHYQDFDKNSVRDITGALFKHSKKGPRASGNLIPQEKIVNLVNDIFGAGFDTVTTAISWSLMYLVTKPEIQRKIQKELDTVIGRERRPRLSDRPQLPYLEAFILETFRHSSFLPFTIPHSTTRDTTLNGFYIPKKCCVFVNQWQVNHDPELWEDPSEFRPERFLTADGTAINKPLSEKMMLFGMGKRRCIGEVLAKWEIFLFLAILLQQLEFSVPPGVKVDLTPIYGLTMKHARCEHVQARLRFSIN

[7] = Rat hepatocyte stability; type: in vitro ADME; conditions: rat, pooled rat hepatocytes, 60 minute incubation; for hepatocyte CLint at 1 μM: read-out: Rat Clint (μL/min/million cells); for half-life at 1 μM: read-out: Rat t1/2
Protocol: as §1, §2, §3, §4, §5, §6

[8] = biological target: CYP3A4 (Homo sapiens (Human), UniProt P08684); assay: Human Cytochrome P450 Inhibition Assay (Bactosomes); type: in vitro ADME; conditions: recombinant Bactosomes, 10 minutes, 37° C.
Chain of CYP3A4 (P08684 whole entry): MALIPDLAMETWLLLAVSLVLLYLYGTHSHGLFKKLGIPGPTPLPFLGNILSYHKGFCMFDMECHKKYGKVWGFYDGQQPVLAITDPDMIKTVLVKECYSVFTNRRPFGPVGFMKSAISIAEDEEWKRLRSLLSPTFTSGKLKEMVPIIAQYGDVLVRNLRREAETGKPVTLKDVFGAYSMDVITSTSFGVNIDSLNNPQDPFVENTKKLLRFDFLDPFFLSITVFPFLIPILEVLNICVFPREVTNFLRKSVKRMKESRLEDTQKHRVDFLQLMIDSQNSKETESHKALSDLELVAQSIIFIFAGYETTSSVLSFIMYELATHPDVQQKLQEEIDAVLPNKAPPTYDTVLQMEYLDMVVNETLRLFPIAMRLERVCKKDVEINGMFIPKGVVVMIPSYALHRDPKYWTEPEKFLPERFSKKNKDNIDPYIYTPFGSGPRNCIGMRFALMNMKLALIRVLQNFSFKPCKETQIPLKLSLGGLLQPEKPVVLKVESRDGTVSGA

[9] = test system: human hepatocytes; assay: Human hepatocyte stability; type: in vitro ADME; conditions: hepatocyte stability, compared to the reference compounds
Protocol: as §1, §2, §3, §4, §5, §6

pIC50 ([1]; Homo sapiens, THP-1, 24 h) | hepatocyte CLint at 1 μM [2] [µL/min/1e6 cells] | half-life at 1 μM [2] [min] | SMILES | other results
6.40 | 9.8 | 138 | C[C@]1(O)CC[C@H](CS(=O)(=O)c2ccc(-c3ccc(F)cc3F)cc2C(F)(F)F)CC1 [CHMSA-08-B, trans-4-(((2′,4′-Difluoro-3-(trifluoromethyl)-[1,1′-biphenyl]-4-yl)sulfonyl)methyl)-1-methylcyclohexan-1-ol] | pIC50 [3]: < 4.60; pIC50 [4]: < 4.60; pIC50 [5]: < 5.00; pIC50 [6]: < 5.00
6.70 | 18 | 73.2 | C[C@]1(O)CC[C@@H](CS(=O)(=O)c2ccc(-c3ccc(F)cc3F)cc2C(F)(F)F)CC1 [CHMSA-08-A, cis-4-(((2′,4′-difluoro-3-(trifluoromethyl)-[1,1′-biphenyl]-4-yl)sulfonyl)methyl)-1-methylcyclohexan-1-ol] | potency in the Thp1 monocytic ATP assay (in words) [1]: excellent potency
5.79 | 30.8 | 37 | C[C@]1(O)CC[C@@H](CS(=O)(=O)c2ccc(-c3ccc(Cl)cc3C#N)cc2)CC1 [CHMSA-10-A, 4-chloro-4′-((cis-4-hydroxy-4-methylcyclohexyl)methanesulfonyl)-(1,1′-biphenyl)-2-carbonitrile] | hepatocyte CLint at 1 μM [7]: 149 µL/min/1e6 cells; half-life at 1 μM [7]: 10.7 min
6.10 | 3.3 | 397 | C[C@]1(O)CC[C@@H](CS(=O)(=O)c2ccc(-c3ccc(C#N)cc3Cl)cc2)CC1 [CHMSA-05-A, 2-chloro-4′-(((cis-4-hydroxy-4-methylcyclohexyl)methyl)sulfonyl)-[1,1′-biphenyl]-4-carbonitrile] | pIC50 [3]: 5.15; pIC50 [4]: 4.44; pIC50 [5]: < 4.30; pIC50 [8]: 4.58; pIC50 [6]: < 4.30
6.52 | 10.8 | 122 | C[C@]1(O)CC[C@H](CS(=O)(=O)c2ccc(-c3ccc(C#N)cc3F)cc2C(F)(F)F)CC1 [CHMSA-02-B] | potency in the Thp1 monocytic ATP assay (in words) [1]: excellent potency; pIC50 [3]: < 5.00; pIC50 [4]: < 5.00; pIC50 [5]: < 5.00; pIC50 [8]: < 5.00; pIC50 [6]: < 5.00
5.27 | < 3 | > 460 | C[C@]1(O)CC[C@H](CS(=O)(=O)c2ccc(-c3ncc(F)cc3F)c(F)c2)CC1 [CHMSA-03-B, trans-4-(((4-(3,5-Difluoropyridin-2-yl)-3-fluorophenyl)sulfonyl)methyl)-1-methylcyclohexan-1-ol] | metabolic stability (in words) [9]: exceptionally good stability
5.60 |  |  | C[C@]1(O)CC[C@H](CS(=O)(=O)c2ccc(-c3ccc(C#N)cc3)c(Cl)c2)CC1 [CHMSA-07-B, 2′-Chloro-4′-(((trans-4-hydroxy-4-methylcyclohexyl)methyl)sulfonyl)-[1,1′-biphenyl]-4-carbonitrile] | 
5.89 |  |  | C[C@]1(O)CC[C@@H](CS(=O)(=O)c2ccc(-c3ccc(C#N)cc3)c(Cl)c2)CC1 [CHMSA-07-A, 2′-chloro-4′-(((cis-4-hydroxy-4-methylcyclohexyl)methyl)sulfonyl)-[1,1′-biphenyl]-4-carbonitrile] | 
5.36 | 4.5 | 297 | C[C@]1(O)CC[C@H](CS(=O)(=O)c2ccc(-c3ccc(C#N)cc3F)cc2)CC1 [CHMSA-01-B, 2-Fluoro-4′-(((trans-4-hydroxy-4-methylcyclohexyl)methyl)sulfonyl)-[1,1′-biphenyl]-4-carbonitrile] | 
 | 22 | 112 | O=S(=O)(N[C@H]1CC[C@H](O)CC1)c1ccc(-c2ccc(F)cc2F)cc1 [ABD599, reference compound] | 
5.74 |  |  | C[C@]1(O)CC[C@@H](CS(=O)(=O)c2ccc(-c3ccc(F)cc3F)c(C#N)c2)CC1 [CHMSA-06-A, 2′,4′-difluoro-4-(((cis-4-hydroxy-4-methylcyclohexyl)methyl)sulfonyl)-[1,1′-biphenyl]-2-carbonitrile] | 
 | 6.3 | 220 | C[C@]1(O)CC[C@H](NS(=O)(=O)c2ccc(-c3ccc(F)cc3F)cc2)CC1 [ABD900, reference compound] | pIC50 [1]: 5.96; hepatocyte CLint at 1 μM [7]: 79 µL/min/1e6 cells; half-life at 1 μM [7]: 17.9 min
6.30 | 7.8 | 172 | C[C@]1(O)CC[C@@H](CS(=O)(=O)c2ccc(-c3ccc(Cl)cc3Cl)cc2)CC1 [CHMSA-11-A, cis-4-(((2′,4′-dichloro-[1,1′-biphenyl]-4-yl)sulfonyl)methyl)-1-methylcyclohexan-1-ol] | pIC50 [3]: < 5.00; pIC50 [4]: 4.60; pIC50 [5]: < 5.00; pIC50 [6]: < 5.00
6.30 | 52.9 | 25 | C[C@]1(O)CC[C@H](CS(=O)(=O)c2ccc(-c3ncc(F)cc3F)cc2C(F)(F)F)CC1 [CHMSA-09-B, trans-4-(((4-(3,5-Difluoropyridin-2-yl)-2-(trifluoromethyl)phenyl)sulfonyl)methyl)-1-methylcyclohexan-1-ol] | 
5.57 | 6.5 | 227 | C[C@]1(O)CC[C@H](CS(=O)(=O)c2ccc(-c3ccc(C#N)cc3Cl)cc2)CC1 [CHMSA-05-B, 2-Chloro-4′-(((trans-4-hydroxy-4-methylcyclohexyl)methyl)sulfonyl)-[1,1′-biphenyl]-4-carbonitrile] | 
6.52 | 12.1 | 112 | C[C@]1(O)CC[C@@H](CS(=O)(=O)c2ccc(-c3ncc(F)cc3F)cc2C(F)(F)F)CC1 [CHMSA-09-A, cis-4-(((4-(3,5-difluoropyridin-2-yl)-2-(trifluoromethyl)phenyl)sulfonyl)methyl)-1-methylcyclohexan-1-ol] | potency in the Thp1 monocytic ATP assay (in words) [1]: excellent potency; pIC50 [3]: < 4.60; pIC50 [4]: 4.60; pIC50 [5]: < 4.60; pIC50 [8]: < 4.60; pIC50 [6]: < 4.60
5.35 |  |  | C[C@]1(O)CC[C@H](CS(=O)(=O)c2ccc(-c3ccc(F)cc3F)c(C#N)c2)CC1 [CHMSA-06-B, 2′,4′-Difluoro-4-(((trans-4-hydroxy-4-methylcyclohexyl)methyl)sulfonyl)-[1,1′-biphenyl]-2-carbonitrile] | 
6.10 | 13.3 | 99.8 | C[C@]1(O)CC[C@H](CS(=O)(=O)c2ccc(-c3ccc(Cl)cc3Cl)cc2)CC1 [CHMSA-11-B, trans-4-(((2′,4′-Dichloro-[1,1′-biphenyl]-4-yl)sulfonyl)methyl)-1-methylcyclohexan-1-ol] | 
